Test system: C. albicans
Assay: Screening II: Candida growth in Lactobacillus cell-free filtrate (LCF), visual turbidity scale 5 to 0
Assay type: cell-based, Candida albicans
Conditions: acids 50 mM, salts 0.3%; 20 hours at 37° C.
Source text: Clinical isolates of Candida albicans and Candida glabrata were used as test strains. These were isolated from the vagina of women with vaginal candidiasis and from healthy females. Suspensions of lactobacilli grown in dMRSs broth (MRS broth without addition of sodium acetate) were centrifuged and sterile filtered. The filtrate is henceforth called Lactobacillus Cell-free Filtrate, LCF. A specified volume was transferred to wells of a micro titre plate and was let to air dry and thereafter resuspended in sterile distilled water to a concentration three times higher and transferred to 96-wells micro titre plates. Candida was added to all vials (three isolates of C. albicans and C. glabrata, respectively, were used). The inhibition was evaluated by visual observation of turbidity and graduated by two persons using a template on a scale from five to zero. […] The plates were incubated for 20 hours at 37° C. and the candida growth in the vials was visually evaluated and graduated from five to zero. […] The inhibition was evaluated by visual observation of turbidity and graduated by two persons using a template on a scale from five to zero. […] The plates were incubated for 20 hours at 37° C. and the candida growth in the wells was visually evaluated and graduated from five to zero.

## CCC(=O)[O-].[Na+] [Sodium propionate]
  effect of acids and acid salts on the growth of C. albicans: most extended effect

## CCC(=O)O [propionic acid]
  effect of acids and acid salts on the growth of C. albicans: most extended effect

Source: patent publication US8222020B2, “Biologically pure strain of Lactobacillus fermentum, strain Ess-1” (SCA Hygiene Products AB, priority 2006, dated 2012)
